According to patent USRE37495E1, “Substituted 1-arylpyrazoles” (Bayer Aktiengesellschaft, priority 1993, dated 2002):

What was measured:
Format in all cases: in vivo
[1] = system: Myzus persicae; assay: Critical concentration test/root-systemic action, Myzus; settings: 20 ppm active compound in soil, leaves infested after 7 days, evaluated after a further 2 days
Procedure: Critical Concentration Test/Root-Systemic Action
Test insect: Myzus persicae
(§1) Solvent: 3 parts by weight of acetone
(§2) Emulsifier: 1 part by weight of alkylaryl polyglycol ether
(§3) To produce a suitable preparation of active compound, 1 part by weight of active compound is mixed with the stated amount of solvent, the stated amount of emulsifier is added and the concentrate is diluted with water to the desired concentration.
(§4) The preparation of active compound is intimately mixed with soil. The concentration of the active compound in the preparation is of practically no importance, only the amount by weight of active compound per unit volume of soil, which is given in ppm (=mg/l), being decisive. The treated soil is transferred into pots and these are planted with cabbage (Brassica oleracea). The active compound can in this way be taken up from the soil by the roots of the plants and be transferred into the leaves.
(§5) After a further 2 days, the evaluation is made by counting or estimating the dead animals. The root-systemic action of the active compound is deduced from the mortality figures. It is 100% if all test animals have been killed and 0% if just as many test insects are still alive as in the case of the untreated control.

[2] = system: Phaedon cochleariae larvae; assay: Critical concentration test/root-systemic action, Phaedon; settings: 2.5 ppm active compound in soil, leaves infested after 7 days, evaluated after a further 2 days
Procedure: Critical Concentration Test/Root-Systemic Action.
Test insect: Phaedon cochleariae larvae
as §1, §2, §3, §4, §5

[3] = system: Musca domestica, strain WHO (N); assay: Fly test; settings: concentration of active compound 1 ppm, after 6 hours, filter paper
Procedure: Test animals: Musca domestica, strain WHO (N)
(§6) 35 parts by weight of ethylene glycol monomethyl ether
(§7) 35 parts by weight of nonylphenol polyglycol ether
(§8) To produce a suitable formulation, three parts by weight of active compound are mixed with seven parts of the abovementioned solvent/emulsifier mixture, and the emulsion concentrate thus obtained is diluted with water to the particular desired concentration.
2 ml of this preparation of active compound are pipetted onto filter paper discs (φ9.5 cm) located in Petri dishes of a suitable size. After the filter paper discs have dried, 25 test animals are introduced into the Petri dish, which is covered.
After 6 hours, the effectiveness of the preparation of active compound is determined. The effectiveness is expressed in %. 100% means that all flies have been killed; 0% means that none of the flies have been killed.

[4] = system: peach aphid (Myzus persicae); assay: Myzus test (leaf dip); settings: concentration of active compound 0.1%, after one day, cabbage leaves dipped
Procedure: (§9) Solvent: 7 parts by weight of dimethylformamide
as §2
(§10) To produce a suitable preparation of active compound, 1 part by weight of active compound is mixed with the stated amount of solvent and the stated amount of emulsifier, and the concentrate is diluted with water to the desired concentration.
Cabbage leaves (Brassica oleracea) which are heavily infested with the peach aphid (Myzus persicae) are treated by being dipped into the preparation of active compound of the desired concentration.
(§11) After the specified period of time, the destruction in % is determined. 100% means that all the aphids have been killed; 0% means that none of the aphids have been killed.

[5] = system: All stages (eggs, larvae, pupae and adults) of Ctenocephalides felis; assay: Flea in-vitro test (all development stages); settings: active compound concentration 10% in blood meal
Procedure: Flea In-Vitro Test (All Development Stages)
Test subject: All stages (eggs, larvae, pupae and adults) of Ctenocephalides felis.
Blood meal is dried overnight in a shallow dish at approximately 70° C. and then screened using a mesh size of 0.63 mm.
1.8 g portions of this prepared blood meal are transferred into plastic Petri dishes of φ9.8 cm.
Using an Eppendorf pipette, 0.2 ml of substance are placed on the 1.8 g of blood meal (dilution factor 1:10).
That is to say, at a use concentration of 1 ppm, the aqueous solution must have a concentration of 10 ppm. The solution is distributed dropwise over the entire surface of-the blood meal.
These prepared dishes are allowed to dry overnight. Using a suitable device, the substance, which is now in the form of dried lumps of blood meal, is crushed and distributed uniformly in the Petri dish by rotating movements. A spatula-full of sieved flea eggs (which are obtained from artificially infected cats) is now added to these prepared test dishes. The dish is sealed with Parafilm and shaken vigorously.
Incubation is effected at 25° C. and the relative atmospheric humidity of 85%. At certain intervals, the dishes are examined for development stages of fleas.
Test criteria: The criteria used for the in-vitro activity of a substance is the inhibition of flea development or a standstill of the development before the adult stage is reached. […]

[6] = system: black bean aphid (Aphis fabae); assay: Aphis test (systemic action); settings: concentration of active compound 0.02%, after four days, bean plants watered (systemic)
Procedure: Aphis Test (Systemic Action)
as §9, §2, §10
Bean plants (Vicia faba) which are heavily infested with the black bean aphid (Aphis fabae) are each watered with 20 ml of preparation of active compound of the desired concentration in such a way that the preparation of active compound penetrates into the soil without wetting the shoot. The active compound is taken up by the roots and passes to the shoot.
as §11

[7] = system: Lucilia cuprina larvae; assay: Blowfly larvae test; settings: after 24 hours
Procedure: Test animals: Lucilia cuprina larvae
35 parts by weight of ethylene glcyol monomethyl ether
as §7
To produce a suitable preparation of active compound, three parts by weight of active compound are mixed with seven parts by weight of the abovementioned mixture and the emulsion concentrate thus obtained is diluted with water to the particular desired concentration.
About 20 Lucilia cuprina res. larvae are introduced into a test tube which contains approx. 1 cm^3 of horse meat and 0.5 ml of the preparation of active compound. After 24 hours, the effectiveness of the preparation of active compound is determined. 100% means that all blowfly larvae have been killed; 0% means that none of the blowfly larvae have been killed.

[8] = system: Blattella germanica or Periplaneta americana; assay: Cockroach test; settings: after 6 hours, filter paper
Procedure: Test animals: Blattella germanica or Periplaneta americana
as §6, §7, §8
2 ml of this preparation of active compound are pipetted onto filter paper discs (φ9.5 cm) located in Petri dishes of a suitable size. After the filter paper discs have dried, 5 test animals (Blattella germanica or Periplaneta americana) are introduced into the Petri dish, which is covered.
After 6 hours, the effectiveness of the preparation of active compound is determined. The effectiveness is expressed in %. 100% means that all cockroaches have been killed; 0% means that none of the cockroaches have been killed.

## N#Cc1nn(-c2c(Cl)cc(C(F)(F)F)cc2Cl)c(N)c1[S+]([O-])C(F)(F)F (stereo not drawn) [prior art]
[1]
  degree of destruction: 0%
[2]
  degree of destruction: 0%
[3]
  destruction: < 100%
[4]
  degree of destruction: 0%
[5]
  destruction: 0%
[6]
  degree of destruction: 0%
[7]; concentration of active compound 1000 ppm
  destructive activity: 100%
[8]; concentration of active compound 10 ppm
  degree of destruction: < 100%

## Cc1nn(-c2c(Cl)cc(C(F)(F)F)cc2Cl)c(N)c1SC(C)(F)F [Example 1, 5-amino-3-methyl-4-(1,1-difluoroethylthio)-1-(2,6-dichloro-4-trifluoromethylphenyl)-pyrazole]
[2]
  degree of destruction: 100%
[8]; concentration of active compound >10 ppm
  destruction: 100%

## CC(F)(F)Sc1cnn(-c2c(Cl)cc(C(F)(F)F)cc2NN)c1N [Example 33, 5-amino-4-(1,1-difluoroethylthio)-1-(2-chloro-4-trifluoromethyl-6-hydrazinophenyl)-pyrazole]
[2]
  degree of destruction: 100%
[7]; concentration of active compound ≧300 ppm
  destructive activity: 100%
